From US11180484B2, “Pyrazole derivatives as plasma kallikrein inhibitors” (KALVISTA PHARMACEUTICALS LIMITED, priority 2016, dated 2021)
“And” between values parts separate entries of the source, which are not always exact repeats. Identical values can stand only once.

Legend:
Human plasma kallikrein = Human plasma kallikrein (Homo sapiens (Human), UniProt P03952); experiment: Determination of the Ki for plasma kallikrein (mixed-model inhibition); assay type: biochemical; conditions: for Ki: human plasma kallikrein, mixed-model inhibition equation
Chain of Human plasma kallikrein (P03952 391-638): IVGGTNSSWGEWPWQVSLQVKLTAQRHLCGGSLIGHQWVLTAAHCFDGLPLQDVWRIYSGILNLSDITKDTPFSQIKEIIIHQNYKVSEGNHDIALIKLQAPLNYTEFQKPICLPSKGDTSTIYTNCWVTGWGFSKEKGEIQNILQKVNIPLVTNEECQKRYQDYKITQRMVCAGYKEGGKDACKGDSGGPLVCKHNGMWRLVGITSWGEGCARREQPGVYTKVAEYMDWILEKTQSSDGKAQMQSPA
Chain of Human plasma kallikrein (P03952 20-390): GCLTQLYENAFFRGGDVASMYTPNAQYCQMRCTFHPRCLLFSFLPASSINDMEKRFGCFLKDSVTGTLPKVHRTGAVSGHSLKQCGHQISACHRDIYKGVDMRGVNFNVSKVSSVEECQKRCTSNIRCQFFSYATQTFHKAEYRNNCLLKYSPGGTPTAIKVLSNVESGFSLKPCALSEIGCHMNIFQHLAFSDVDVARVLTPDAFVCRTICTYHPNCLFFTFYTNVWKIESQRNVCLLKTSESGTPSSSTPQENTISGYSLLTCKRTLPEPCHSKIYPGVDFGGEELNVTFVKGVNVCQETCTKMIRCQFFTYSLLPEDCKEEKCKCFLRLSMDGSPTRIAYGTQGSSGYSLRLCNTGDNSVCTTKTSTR

Human Factor XIIa = Human Factor XIIa (Homo sapiens (Human), UniProt P00748); experiment: Factor XIIa inhibitory activity in vitro; assay type: biochemical; conditions: 25° C., substrate H-DPro-Phe-Arg-AFC; read-out: IC50 (human FXIIa)
Chain of Human Factor XIIa (P00748 373-615): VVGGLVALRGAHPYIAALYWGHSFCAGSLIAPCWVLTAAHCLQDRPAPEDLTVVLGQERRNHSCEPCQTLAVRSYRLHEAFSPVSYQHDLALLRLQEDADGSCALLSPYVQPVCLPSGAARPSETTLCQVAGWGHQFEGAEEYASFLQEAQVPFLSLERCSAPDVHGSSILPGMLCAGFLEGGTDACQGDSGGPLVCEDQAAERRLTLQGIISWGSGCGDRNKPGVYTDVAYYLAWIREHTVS
Experimental: Human Factor XIIa (Enzyme Research Laboratories) was incubated at 25° C. with the fluorogenic substrate H-DPro-Phe-Arg-AFC and various concentrations of the test compound. Residual enzyme activity (initial rate of reaction) was determined by measuring the change in […] at 410 nm and the IC50 value for the test compound was determined.

plasmin = plasmin (Homo sapiens (Human), UniProt P00747); experiment: Determination of enzyme selectivity: plasmin; assay type: biochemical; conditions: substrate at Km concentration
Chain of plasmin (P00747 581-810): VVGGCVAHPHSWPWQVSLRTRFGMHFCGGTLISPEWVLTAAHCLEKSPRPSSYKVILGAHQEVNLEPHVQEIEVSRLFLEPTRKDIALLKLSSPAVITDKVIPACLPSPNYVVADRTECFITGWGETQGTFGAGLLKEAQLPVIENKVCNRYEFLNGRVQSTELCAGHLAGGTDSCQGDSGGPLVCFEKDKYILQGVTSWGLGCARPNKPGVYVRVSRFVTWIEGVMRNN
Chain of plasmin (P00747 97-580): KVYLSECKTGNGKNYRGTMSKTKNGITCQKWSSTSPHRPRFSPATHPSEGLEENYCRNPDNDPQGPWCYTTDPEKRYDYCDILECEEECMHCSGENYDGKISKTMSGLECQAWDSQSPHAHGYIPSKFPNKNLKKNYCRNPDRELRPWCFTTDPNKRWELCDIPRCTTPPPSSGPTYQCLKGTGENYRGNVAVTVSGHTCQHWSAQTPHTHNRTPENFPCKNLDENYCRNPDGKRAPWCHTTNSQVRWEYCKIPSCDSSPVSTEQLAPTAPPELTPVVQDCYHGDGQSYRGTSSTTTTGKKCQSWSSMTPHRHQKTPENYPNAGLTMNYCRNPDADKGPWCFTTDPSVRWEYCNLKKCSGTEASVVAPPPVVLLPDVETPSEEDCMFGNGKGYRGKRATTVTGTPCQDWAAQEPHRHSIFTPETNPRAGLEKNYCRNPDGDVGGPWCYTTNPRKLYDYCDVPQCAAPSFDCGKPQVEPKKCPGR
Experimental: (§1) Human serine protease enzymes plasmin, thrombin and trypsin were assayed for enzymatic activity using an appropriate fluorogenic substrate. Protease activity was measured by monitoring the accumulation of liberated fluorescence from the substrate over 5 minutes. The linear rate of fluorescence increase per minute was expressed as percentage (%) activity. The Km for the cleavage of each substrate was determined by standard transformation of the Michaelis-Menten equation.

thrombin = thrombin (Homo sapiens (Human), UniProt P00734); experiment: Determination of enzyme selectivity: thrombin; assay type: biochemical; conditions: substrate at Km concentration
Experimental: as §1

[1] = Plasma protein binding (PPB), rapid equilibrium dialysis, rat plasma; assay type: in vitro ADME; conditions: 5 μM test compound, dialysis 5 hrs at 37° C.

| SMILES | Ki (Human plasma kallikrein) | Alpha (Human plasma kallikrein; parameter of the mixed-model equation indicating mechanism of inhibition) | IC50 (Human Factor XIIa) [µM] | IC50 (plasmin) [µM] | IC50 (thrombin) [µM] | fraction unbound at 5 h, 5 μM [1] |
| --- | --- | --- | --- | --- | --- | --- |
| COCc1nn(Cc2ccc(Cn3ccccc3=O)cc2)cc1C(=O)NCc1c(-n2cnnn2)ccc(OC)c1F [Example 39, N-{[2-Fluoro-3-methoxy-6-(1,2,3,4-tetrazol-1-yl)phenyl]methyl}-3-(methoxymethyl)-1-({4-[(2-oxopyridin-1-yl)methyl]phenyl}methyl)pyrazole-4-carboxamide] | 0.00026 µM | 1.7 | > 4 | 31.2 | 19.3 | 0.11 |
| COCc1nn(Cc2cnc(N3CCCC3)nc2)cc1C(=O)NCc1c(-n2cnnn2)ccc(OC)c1F [Example 79, N-{[2-Fluoro-3-methoxy-6-(1,2,3,4-tetrazol-1-yl)phenyl]methyl}-3-(methoxymethyl)-1-{[2-(pyrrolidin-1-yl)pyrimidin-5-yl]methyl}pyrazole-4-carboxamide] | 0.00038 µM and 0.00023 µM | – | > 40 | 12 | 7.31 | 0.05 |
